Laboratory results published in patent US8377478B2, “Solid detergent composition” (Innospec Limited, priority 2007, dated 2013).

How the values were obtained:
Format in all cases: physicochemical
[1] = Solubility: EDDS content of a saturated solution in water; settings: room temperature, stirred overnight, as free EDDS, ignoring counter ion
Method: The solubility of each sample was measured as follows: An excess of solid material was added to 5 ml of water and stirred overnight at room temperature. The solution was filtered and the filtrate analysed for EDDS content by HPLC. The solubility values given in table 4 refer to the amount of free EDDS or succinate ion present and ignore the mass of any associated counter ion.

[2] = Appearance of the materials observed periodically over 72 hours
Method: The appearance of each of the materials was observed periodically over 72 hours. The observations are recorded in table 2.

[3] = Increase in mass of the samples over time
Excerpt: Table 3 show how the samples increased in mass over time.

SMILES | EDDS content of a saturated solution solubility [1] [mg/kg] | Appearance after 24 hr ([2]; after 24 hr) | Appearance after 48 hr [2] | Appearance after 72 hr [2] | Initial Appearance [2] | % increase in mass after 72 hr [3] [%] | Appearance after 24 hr ([2]; cell in the 24 hr column marked (2 hr))
O=C([O-])CC(NCCNC(CC(=O)[O-])C(=O)[O-])C(=O)[O-].[Mg+2].[Mg+2] (centres unmarked) [Example A] | 164300 | Free flowing | Free flowing | Free flowing | Free flowing | 0.10 | –
O=C([O-])CC(NCCNC(CC(=O)[O-])C(=O)[O-])C(=O)[O-].[Ca+2].[Ca+2] (centres unmarked) [F] | 10100 | Slightly | Slightly | Slightly | Free flowing | 8.81 | –
O=C1CCC(=O)ON2CCN(O1)OC(=O)CCC(=O)O2.[Na].[Na].[Na] [Na3EDDS, trisodium ethylenediamine disuccinate] | – | – | Very Sticky | Very Sticky | Free flowing | 25 | Sticky Solid
